Values quoted from earlier work as cited in US20140322314A1, “Omega-3 Fatty Acid Formulations for Use as Pharmaceutical Treatment” (Matinas BioPharma, Inc., priority 2013, published 2014).

Settings: in vivo

SMILES: CC[C@H](C)C(=O)O[C@H]1C[C@@H](C)C=C2C=C[C@H](C)[C@H](CC[C@@H]3C[C@@H](O)CC(=O)O3)[C@H]21 [lovastatin]
- absorbed at rates: about 30%

SMILES: CC(C)n1c(/C=C/C(O)CC(O)CC(=O)O)c(-c2ccc(F)cc2)c2ccccc21 (centres unmarked) [fluvastatin]
- bioavailable: approximately 24%
